Data taken from publication PMC3849007 (Journal of Experimental & Clinical Cancer Research : CR, 2013).

How the values were obtained:
[1] = test system: human tumor xenografted nude mice; parameters: method as in PMID 19010844; settings: cited from earlier work
[2] = test system: anaphase bridges in BJ-EHLT fibroblasts; type: cell-based; settings: 0.5 μM, 24 hrs
Text: Anaphase bridges were scored by counting 400 nuclei per sample in triplicate. Histograms show the fold induction in treated versus untreated samples. Right panels show representative images of anaphase bridges in the treated samples at 63× magnification. Histograms show the mean of three independent experiments. Error bars indicate ± SD. (*P < 0.05).
As a result of chromosome ends fusion consequent to telomere damage, chromatin bridges are occasionally observed between daughter cells after mitosis (also called anaphase bridges).

BJ-EHLT fibroblasts = experiment: Proliferation assay, transformed fibroblasts; type: cell-based, human; settings: 0.5 μM, culture day 2 to 8
Protocol: (§1) BJ fibroblasts expressing hTERT (BJ-hTERT) or hTERT and SV40 early region (BJ-EHLT), were obtained as previously reported. Cells were grown in Dulbecco Modified Eagle Medium (D-MEM, Invitrogen Carlsbad, CA, USA) supplemented with 10% fetal calf serum, 2 mM L-glutamin and antibiotics.
(§2) 5 × 10^4 cells were seeded in 60-mm Petri plates (Nunc, MasciaBrunelli, Milano, Italy) and 24 h after plating, 0.5 μM of freshly dissolved compound was added to the culture medium. Cell counts (Coulter Counter, Kontron Instruments, Milano, Italy) and viability (trypan blue dye exclusion) were determined daily, from day 2 to day 8 of culture.

anaesthetised guinea pig = experiment: Cardiovascular effects in anaesthetised guinea pig; type: in vivo; settings: escalating iv doses 0.25, 0.5, 1 mg/kg, 60 min apart
Protocol: After anaesthesia with approximately 40 to 60 mg/kg (i.p.) sodium pentobarbitone, a jugular vein was cannulated for administration of the vehicle or test substance. Arterial blood pressure (systolic, diastolic and mean) was measured via a catheter inserted into the carotid artery, heart rate was derived electronically from the pressure waveform and a sample of arterial blood determined blood gases (PO2 and PCO2), O2 saturation, standard bicarbonate (HCO3), pH and base excess before the start of the experiment. Electrocardiogram (ECG) limb electrodes recorded the standard lead II configuration and QTcB interval (calculated as QTcB = QT/(√RR)). The animal was allowed to stabilise after completion of the surgical preparation for a period of at least 15 min. Then, after a further 10 min period of continuous recording of ECG and haemodynamic variables, the test substance or vehicle was administered intravenously as 3 iv infusions with each administration separated by 60 min.
Several limitations exist in the use of mouse and rat models for the study of cardiotoxic effects in pharmacology, which regard differences in myocardial function compared to the human heart. […]

[3] = test system: h-Tel (anti-parallel) quadruplex; experiment: CD thermal unfolding of h-Tel quadruplex; type: binding, human; settings: for CD study thermal stability ∆Tm: compared to h-Tel without bound ligand (Tm 70 ± 3); for CD study thermal stability Tm: h-Tel 4 μM with 3.5 mol.equiv. ligand, K+ solution, unfolding at 290 nm
Protocol: CD spectra were recorded on an Applied Photophysics Pi-Star-180 spectrophotometer (Applied Photophysics Ltd, Surrey, UK). The optical system was configured with a 75 W Xe lamp, circular light polarizer and end-mounted photomultiplier. The instrument had previously been calibrated with (D)-camphorsulfonic acid. Temperature was regulated using a Neslab RTE-300 circulating programmable water bath (Neslab Inc). CD spectra were recorded at 298 K in a 10 mm path length cell over a wavelength range of 215–345 nm in steps of either 1 0r 2 nm, with 3 nm entrance/exit slit widths: the number of counts was set to 10,000 with adaptive sampling set to 500,000. The spectra were corrected by subtracting the spectrum of the same buffer solution of 100 mM potassium chloride and 10 mM potassium phosphate at pH 7.0. Annealing and melting profiles were recorded using a thermoelectric temperature controller (Melcor) on 4 μM DNA samples with and without 3.5 mol.equiv. of ligands using 0.5 K temperature increments and a cooling or heating rate of 0.2 K/min over the temperature range 298-368 K.
This analysis was extended to examine the effects of ligand binding on thermal stability by measuring the unfolding curves at 290 nm of the complexes formed in K^+ solution, corresponding to the CD spectra shown in Figure 4a. Monitoring the thermal unfolding transition for h-Tel produces a sigmoidal unfolding curve with a transition mid-point Tm value of 72 ± 3°C (Figure 4c). All three ligands show significant effects in enhancing the stability of the quadruplex by shifting the Tm values to higher temperatures (∆Tm ~ 15-19°C compared to h-Tel without bound ligands) (Table 1).

telomerase = target: telomerase; parameters: method as in PMID 15304549; settings: Trap assay; read-out: telomerase inhibition IC50; cited from earlier work
M1 muscarinic receptor = target: T1, M1 muscarinic receptor (Homo sapiens, UniProt P11229); experiment: Cerep ExpresSProfile receptor screen, M1; settings: data not shown, read-out: % inhibition of ligand binding, M1 muscarinic receptor
T1 construct: purchased Cerep (ExpresSProfile screen, contract service)
T1 sequence (P11229 whole entry): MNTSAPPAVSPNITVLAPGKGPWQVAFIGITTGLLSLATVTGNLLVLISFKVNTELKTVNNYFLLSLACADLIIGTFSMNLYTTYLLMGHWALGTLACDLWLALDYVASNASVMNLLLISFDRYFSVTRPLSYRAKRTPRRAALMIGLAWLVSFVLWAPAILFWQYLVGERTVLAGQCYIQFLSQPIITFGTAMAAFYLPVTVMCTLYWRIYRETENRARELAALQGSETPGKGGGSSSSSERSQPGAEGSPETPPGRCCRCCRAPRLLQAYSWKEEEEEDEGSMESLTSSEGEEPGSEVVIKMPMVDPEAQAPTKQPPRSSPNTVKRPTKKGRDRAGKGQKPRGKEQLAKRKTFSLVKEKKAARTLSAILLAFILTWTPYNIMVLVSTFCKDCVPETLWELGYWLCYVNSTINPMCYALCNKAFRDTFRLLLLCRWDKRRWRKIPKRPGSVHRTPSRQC
Protocol: To investigate the molecular bases of cardio toxicity, the agent was tested for its potential to interact with a panel of 54 pharmacological receptors, the majority being human recombinant receptors (Cerep ExpresSProfile screen) (http://www.cerep.fr).

[4] = test system: γH2AX in BJ-EHLT fibroblasts; experiment: Immunofluorescence for γH2AX (DNA damage response); type: cell-based, human; settings: 0.5 μM, 24 hrs
Protocol: Cells were fixed in 2% formaldehyde and permeabilized in 0.25% Triton X100 in PBS for 5 min at room temperature. For immunolabeling, cells were incubated with primary antibody, then washed in PBS and incubated with the secondary antibodies. The following primary antibodies were used: pAb and mAb anti-TRF1 (Abcam Ltd.; Cambridge UK); mAb (Upstate, Lake Placid, NY) and pAb anti-γH2AX (Abcam). The following secondary antibody were used: TRITC conjugated Goat anti Rabbit, FITC conjugated Goat anti Mouse (Jackson ImmunoResearch Europe Ltd., Suffolk, UK). Fluorescence signals were recorded by using a Leica DMIRE2 microscope equipped with a Leica DFC 350FX camera and elaborated by a Leica FW4000 deconvolution software (Leica, Solms, Germany). This system permits to focus single planes inside the cell generating 3D high-resolution images. For quantitative analysis of γH2AX positivity, 200 cells on triplicate slices were scored. For TIF’s analysis, in each nucleus a single plane was analyzed and at least 50 nuclei per sample were scored.

BJ-hTERT fibroblasts = experiment: Proliferation assay, normal telomerised fibroblasts; type: cell-based, human; settings: 0.5 μM, culture day 2 to 8
Protocol: as §1, §2

NCI60 panel = NCI60 panel growth inhibition; type: cell-based, human
[5] = test system: telomere aberrations in BJ-EHLT fibroblasts; experiment: Telomere FISH on metaphase spreads; type: cell-based, human; settings: 0.5 μM, 72 hrs
Protocol: For metaphase chromosome preparation cells were treated with demecolcine (Sigma, Milan, Italy) 0.1 mg/ml for 4 h and then harvested and washed in 75 mM KCl for 5 min at 37°C. After centrifugation cells were fixed in MeOH/acetic acid 3:1 overnight and then spread on slides. Hybridization with rhodamine-coupled PNA was performed as described. For each sample 20 metaphases per slice on triplicate were scored. Images of the metaphases were captured with a 100 × objective.

Structure (SMILES) | toxic deaths or body weight loss ([1]; efficacious doses, during or after treatment) | histological analysis of organs and tissues ([1]; end of treatment) | haemodynamic effect just after administration ([1]; treated vs control mice, with heart rate and cardiac output decrease) | anaphase bridges frequency, fold induction vs untreated [2] | day of maximum effect on cell proliferation (BJ-EHLT fibroblasts) | effect on QTcB interval (anaesthetised guinea pig; all doses, listed as RHPS4) | effect on heart rate (anaesthetised guinea pig; cumulative 1.75 mg/kg) | CD study thermal stability ∆Tm [3] [°C] | CD study thermal stability Tm [3] [°C] | IC50 (telomerase) [µM] | inhibition at 1 µM (M1 muscarinic receptor) [%] | percentage of cells positive for γH2AX [4] | inhibition of cell proliferation in normal telomerized fibroblasts (BJ-hTERT fibroblasts) | GI50 (NCI60 panel; Homo sapiens, NCI data, read-out: Mean GI50 value from the NCI60 panel) [µM] | effect on cell proliferation in a panel of different histotype tumor cell lines (NCI60 panel; several human cancer cell lines) | telomere aberrations (telomere doublets, sister telomere fusions) [5]
Cc1cc2c3c([n+](C)c4ccc(F)cc4c3c1)-c1cc(F)ccc1N2C [Compound 1, 3,11-Difluoro-6,8,13-trimethyl-8H-quino[4,3,2-kl]acridinium metho-sulfate] | no toxic deaths or body weight loss | no evidence of lesions or morphological alterations | marked but reversible hypotension | ten | 6 days | marked and sustained increase in QTcB interval | dose-related decrease in heart rate | 16 | 86 ± 3 | 0.33 | > 95 | – | – | – | – | –
CC(=O)Nc1ccc2c(c1)c1cccc3c1c([n+]2C)-c1ccccc1N3C [Compound 3, 3-acetylamino-8,13-dimethyl-8H-quino[4,3,2-kl]-acridinium iodide] | – | – | – | – | seven | – | – | 15 | 85 ± 3 | – | – | less potent than the lead compound | did not induce inhibition of cell proliferation | 81.3 | maintained an anti-proliferative effect | lower effect
